Key:
[1] = molecular target: XIAP-BIR3 Protein (Homo sapiens (Human), UniProt P98170); experiment: Fluorescence polarization affinity of compounds to XIAP-BIR3; assay type: binding; conditions: XIAP-BIR3 30 nM; 5 nM ARPFAQ-K(5-FAM)-NH2 probe; FP; pH 7.5; read-out: affinity to target protein in vitro, XIAP-BIR3 Protein (IC50)
Experimental: (§1) Biological Assay 1: affinity of compounds to cIAP1-BIR3, cIAP2-BIR3, XIAP-BIR3 • 1) Affinity of compounds listed in table to cIAP1-BIR3, Ciap2-BIR3, XIAP-BIR3 was tested referring to Nikolovska-Colesks, Z. et.Al. (Analytical Biochemistry,2004,232:261-273) to obtain IC50 value. Generally speaking, in 10-dose IC50 mode, IAP antagonists with different concentrations were diluted in series by 3-fold and fluorescence labelled ARPFAQ-K (5-FAM)-NH2 peptide was used as probe to test compounds binding to protein BIR3 domain. • 2) Test condition: cIAP1-BIR3: 20 nM; cIAP2-BIR3: 60 nM; XIAP-BIR3: 30 nM; 5 nM probe in 100 mM tripotassium phosphate, pH 7.5, 0.1 mg/mL BSA, 0.005% Triton X100 and 0.5% DMSO. • 3) Test procedure: compounds were added into protein with different concentrations by using ECHO (LabCyte), and then the mixture was preincubated for 15 min. The probe was added and the final concentration was 5 nM. After incubating for 60 min, FP was tested and mP was calculated. Experiment results were list in table 1.

[2] = molecular target: cIAP2-BIR3 Protein (Homo sapiens (Human), UniProt Q13489); experiment: Fluorescence polarization affinity of compounds to cIAP2-BIR3; assay type: binding; conditions: cIAP2-BIR3 60 nM; 5 nM ARPFAQ-K(5-FAM)-NH2 probe; FP; pH 7.5; read-out: affinity to target protein in vitro, cIAP2-BIR3 Protein (IC50)
Experimental: as §1

[3] = tested on: NF-κB Luciferase Reporter Hela cells; experiment: TNF-α inducing NF-κB reporter; assay type: cell-based; conditions: Homo sapiens, 6 h, Bright-Glo luciferase
Experimental: Biological Assay 2: TNF-α inducing NF-κB reporter
• 1) tested compounds were added into DMSO to give parent liquor (10 mM); • 2) reference compound Birinapant (32 μL, 10 mM) was added into DMSO (128 μL) to give a solution (2 mM); • 3) 0.5 μL reference compound Birinapant (2 mM) and tested compounds (10 mM) were taken by Echo and added into Greiner 96 well black cell culture plate respectively. The initial concentration of the reference compound and tested compound was 10 μM and 50 μM, respectively. Then, the reference compound and tested compounds were diluted at 9 points in series by 5-fold; and every plate was repeated for 3 times. • 4) the reference compound WXFL2012A001 (Birinapant) (final concentration: 10 μM) as HPE and DMSO (final concentration: 0.5%) as ZPE.
• 5) purpose of the three repeated plates: the first plate was used for testing compounds' activity;
the second plate was used for testing cytotoxicity of the compounds; the third plate was used for solution replacement of the first and second plates: mixing inducer TNF-α and medium containing 0.1% FBS, and then being added to the third plate and the resultant mixture was transferred to the first plate where supernatants had been removed.
• 1) removing medium in NF-iBLuciferase Reporter Hela cell culture flask and washing cell once with PBS (10 mL) • 2) adding 0.25% pancreatin (3 mL) to T150 cell culture flask, and placinginto cell incubator (37° C., 5%CO2) and dissociating cell for 3 min, and then medium (10 mL) was added to end dissociation and blowing cells with electric pipette until cells were dispersed into single cell. • 3) Calculating cell density with cell counter Countstar • 4) Adjusting NF-κB Luciferase Reporter Hela density with medium to 2.0×10^5 cells/mL • 5) Adding cells to two Greiner 96 well black cell culture plates containing compounds, (100 μL per well (2.0×10^4 cells/well)), one plate was used for testing compounds' activity, another was used for testing cytotoxicity of the compounds. • 6) Placing cell culture plates into cell incubator (37° C., 5%CO2) and incubatingfor 24 h Second Day TNF-α Inducing • 1) TNF-α (100 μg/mL) was diluted into 20 ng/mL with 0.1% FBS medium and transferredto the third plate with 100 μL per well • 2) Removing medium of the first 96 well black cell culture plate (compound activity testing plate) after 24 h, replacing with fresh medium containing the compound and 20 ng/mL TNF-α in the third plate • 3) Placing cell culture plate into cell incubator (37° C., 5% CO2) and incubatingfor 6 h • 4) after 6 h, compound's activity in the first plate was tested according to Bright-Glo (Promega) manual method, luciferase signal in each well was tested by Envision plate reader • 5) compound's cytotoxicity in the second plate was tested according to ATPlite 1Step (Perkin Elmer) manual method, luciferase signal in each well was tested by Envision plate reader • 6) analyzing with software to obtain EC50 of compound.

[4] = molecular target: cIAP1-BIR3 Protein (Homo sapiens (Human), UniProt Q13490); experiment: Fluorescence polarization affinity of compounds to cIAP1-BIR3; assay type: binding; conditions: cIAP1-BIR3 20 nM; 5 nM ARPFAQ-K(5-FAM)-NH2 probe; FP; pH 7.5; read-out: affinity to target protein in vitro, cIAP1-BIR3 Protein (IC50)
Experimental: as §1

[5] = Table 3, 20 ng/mL TNF-α, values given as ranges

Sequence of XIAP-BIR3 Protein (P98170 241-356): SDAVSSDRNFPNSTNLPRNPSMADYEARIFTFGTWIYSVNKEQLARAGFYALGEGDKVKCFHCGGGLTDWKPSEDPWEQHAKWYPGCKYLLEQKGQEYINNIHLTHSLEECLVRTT
Sequence of cIAP2-BIR3 Protein (Q13489 238-349): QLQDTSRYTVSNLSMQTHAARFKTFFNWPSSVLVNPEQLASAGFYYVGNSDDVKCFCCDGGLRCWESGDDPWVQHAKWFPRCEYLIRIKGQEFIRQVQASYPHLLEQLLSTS
Sequence of cIAP1-BIR3 Protein (Q13490 253-363): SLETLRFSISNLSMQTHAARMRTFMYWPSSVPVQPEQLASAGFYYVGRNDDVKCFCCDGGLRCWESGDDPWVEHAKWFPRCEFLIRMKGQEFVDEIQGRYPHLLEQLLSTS

CN[C@@H](C)C(=O)N[C@H](C(=O)N1C[C@@H](F)C[C@H]1Cn1c(-c2[nH]c3cc(F)ccc3c2C[C@@H]2C[C@H](F)CN2C(=O)[C@@H](NC(=O)[C@H](C)NC)C(C)(C)C)nc2cc(F)ccc21)C1CC1 [Embodiment 22]
IC50 [1]: 10 to 100 nM | IC50 [2]: 10 to 100 nM | EC50 [3, 5]: < 10 nM | IC50 [4]: < 10 nM

CC[C@H](NC(=O)[C@H](C)NC)C(=O)N1CC(F)(F)C[C@H]1Cn1c(-c2[nH]c3cc(F)ccc3c2C[C@@H]2CC(F)(F)CN2C(=O)[C@@H](NC(=O)[C@H](C)NC)C(C)C)nc2cc(F)ccc21 [Embodiment 47]
EC50 [3, 5]: 10 to 100 nM

CC[C@H](NC(=O)[C@H](C)NC)C(=O)N1C[C@@H](F)C[C@H]1Cc1c(-c2nc3cc(F)ccc3n2C[C@@H]2C[C@H](F)CN2C(=O)[C@@H](NC(=O)[C@H](C)NC)C(C)(C)C)[nH]c2cc(F)ccc12 [Embodiment 19]
IC50 [1]: 10 to 100 nM | IC50 [2]: 10 to 100 nM | EC50 [3, 5]: < 10 nM | IC50 [4]: < 10 nM

CC[C@H](NC(=O)[C@H](C)NC)C(=O)N1CCC[C@H]1Cn1c(-c2[nH]c3cc(F)ccc3c2C[C@@H]2CCCN2C(=O)[C@@H](NC(=O)[C@H](C)NC)C(C)(C)C)nc2cc(F)ccc21 [Embodiment 5]
EC50 [3, 5]: 10 to 100 nM

CN[C@@H](C)C(=O)N[C@H](C(=O)N1CC(F)(F)C[C@H]1Cc1c(-c2nc3cc(F)ccc3n2C[C@@H]2CC(F)(F)CN2C(=O)[C@@H](NC(=O)[C@H](C)NC)C(C)C)[nH]c2cc(F)ccc12)C(C)C [Embodiment 45]
EC50 [3, 5]: 10 to 100 nM

CCC[C@H](NC(=O)[C@H](C)NC)C(=O)N1CCC[C@H]1Cn1c(-c2[nH]c3cc(F)ccc3c2C[C@@H]2CCCN2C(=O)[C@@H](NC(=O)[C@H](C)NC)C(C)C)nc2cc(F)ccc21 [Embodiment 10]
EC50 [3, 5]: 10 to 100 nM

CC[C@H](NC(=O)[C@H](C)NC)C(=O)N1CCC[C@H]1Cn1c(-c2[nH]c3cc(F)ccc3c2C[C@@H]2C[C@H](F)CN2C(=O)[C@@H](NC(=O)[C@H](C)NC)C(C)C)nc2cc(F)ccc21 [Embodiment 41]
EC50 [3, 5]: 10 to 100 nM

CCC[C@H](NC(=O)[C@H](C)NC)C(=O)N1C[C@@H](F)C[C@H]1Cc1c(-c2nc3cc(F)ccc3n2C[C@@H]2C[C@H](F)CN2C(=O)[C@@H](NC(=O)[C@H](C)NC)C(C)(C)C)[nH]c2cc(F)ccc12 [Embodiment 33]
EC50 [3, 5]: < 10 nM

CCC[C@H](NC(=O)[C@H](C)NC)C(=O)N1C[C@@H](F)C[C@H]1Cn1c(-c2[nH]c3cc(F)ccc3c2C[C@@H]2C[C@H](F)CN2C(=O)[C@@H](NC(=O)[C@H](C)NC)C(C)(C)C)nc2cc(F)ccc21 [Embodiment 35]
EC50 [3, 5]: < 10 nM

CCC[C@H](NC(=O)[C@H](C)NC)C(=O)N1CCC[C@H]1Cn1c(-c2[nH]c3cc(F)ccc3c2C[C@@H]2CCCN2C(=O)[C@@H](NC(=O)[C@H](C)NC)C2CCCCC2)nc2cc(F)ccc21 [Embodiment 12]
EC50 [3, 5]: 10 to 100 nM

CC[C@H](NC(=O)[C@H](C)NC)C(=O)N1C[C@@H](F)C[C@H]1Cc1c(-c2nc3cc(F)ccc3n2C[C@@H]2[C@@H](C)[C@@H](C)CN2C(=O)[C@H](CC)NC(=O)[C@H](C)NC)[nH]c2cc(F)ccc12 [Embodiment 48]
EC50 [3, 5]: 10 to 100 nM

CC[C@H](NC(=O)[C@H](C)NC)C(=O)N1C[C@@H](F)C[C@H]1Cc1c(-c2nc3cc(F)ccc3n2C[C@@H]2C[C@H](F)CN2C(=O)[C@@H](NC(=O)[C@H](C)NC)C(C)C)[nH]c2cc(Cl)ccc12 [Embodiment 51]
EC50 [3, 5]: < 10 nM

CC[C@H](NC(=O)[C@H](C)NC)C(=O)N1CCC[C@H]1Cc1c(-c2nc3cc(F)ccc3n2C[C@@H]2CCCN2C(=O)[C@@H](NC(=O)[C@H](C)NC)C(C)(C)C)[nH]c2cc(F)ccc12 [Embodiment 3]
EC50 [3, 5]: < 10 nM

CCC[C@H](NC(=O)[C@H](C)NC)C(=O)N1CCC[C@H]1Cn1c(-c2[nH]c3cc(F)ccc3c2C[C@@H]2CCCN2C(=O)[C@@H](NC(=O)[C@H](C)NC)C(C)(C)C)nc2cc(F)ccc21 [Embodiment 11]
EC50 [3, 5]: 10 to 100 nM

CC[C@H](NC(=O)[C@H](C)NC)C(=O)N1CCC[C@H]1Cc1c(-c2nc3cc(F)ccc3n2C[C@@H]2C[C@H](F)CN2C(=O)[C@@H](NC(=O)[C@H](C)NC)C(C)C)[nH]c2cc(F)ccc12 [Embodiment 37]
EC50 [3, 5]: 10 to 100 nM

CN[C@@H](C)C(=O)N[C@H](C(=O)N1C[C@@H](F)C[C@H]1Cc1c(-c2nc3cc(F)ccc3n2C[C@@H]2[C@@H](C)[C@@H](C)CN2C(=O)[C@@H](NC(=O)[C@H](C)NC)C(C)C)[nH]c2cc(F)ccc12)C(C)C [Embodiment 49]
EC50 [3, 5]: < 10 nM

CCC[C@H](NC(=O)[C@H](C)NC)C(=O)N1C[C@@H](F)C[C@H]1Cc1c(-c2nc3cc(F)ccc3n2C[C@@H]2C[C@H](F)CN2C(=O)[C@@H](NC(=O)[C@H](C)NC)C2CCCCC2)[nH]c2cc(F)ccc12 [Embodiment 34]
EC50 [3, 5]: < 10 nM

CC[C@H](NC(=O)[C@H](C)NC)C(=O)N1CCC[C@H]1Cn1c(-c2[nH]c3cc(F)ccc3c2C[C@@H]2CCCN2C(=O)[C@@H](NC(=O)[C@H](C)NC)C2CCCCC2)nc2cc(F)ccc21 [Embodiment 6]
EC50 [3, 5]: 10 to 100 nM

CCC[C@H](NC(=O)[C@H](C)NC)C(=O)N1CCC[C@H]1Cc1c(-c2nc3cc(F)ccc3n2C[C@@H]2CCCN2C(=O)[C@@H](NC(=O)[C@H](C)NC)C2CCCCC2)[nH]c2cc(F)ccc12 [Embodiment 9]
EC50 [3, 5]: 10 to 100 nM

CC[C@H](NC(=O)[C@H](C)NC)C(=O)N1CCC[C@H]1Cc1c(-c2nc3cc(F)ccc3n2C[C@@H]2CCCN2C(=O)[C@@H](NC(=O)[C@H](C)NC)C2CCCCC2)[nH]c2cc(F)ccc12 [Embodiment 4]
EC50 [3, 5]: 10 to 100 nM

CC[C@H](NC(=O)[C@H](C)NC)C(=O)N1C[C@@H](F)C[C@H]1Cc1c(-c2nc3cc(F)ccc3n2C[C@@H]2C[C@H](F)CN2C(=O)[C@@H](NC(=O)[C@H](C)NC)C(C)C)[nH]c2ccccc12 [Embodiment 50]
EC50 [3, 5]: 10 to 100 nM

CC[C@H](NC(=O)[C@H](C)NC)C(=O)N1C[C@@H](O)C[C@H]1Cc1c(-c2[nH]c3cc(F)ccc3c2C[C@@H]2C[C@H](O)CN2C(=O)[C@H](CC)NC(=O)[C@H](C)NC)[nH]c2cc(F)ccc12 [Birinapant, reference compound]
EC50 ([3]; Table 4, 20 ng/mL TNF-α, exact values with control Birinapant): 7.05 nM

CCC[C@H](NC(=O)[C@H](C)NC)C(=O)N1C[C@@H](F)C[C@H]1Cc1c(-c2nc3cc(F)ccc3n2C[C@@H]2C[C@H](F)CN2C(=O)[C@H](CCC)NC(=O)[C@H](C)NC)[nH]c2cc(F)ccc12 [Embodiment 15]
EC50 [3, 5]: 10 to 100 nM

CCC[C@H](NC(=O)[C@H](C)NC)C(=O)N1CCC[C@H]1Cc1c(-c2nc3cc(F)ccc3n2C[C@@H]2CCCN2C(=O)[C@@H](NC(=O)[C@H](C)NC)C(C)C)[nH]c2cc(F)ccc12 [Embodiment 7]
EC50 [3, 5]: 10 to 100 nM

CCC[C@H](NC(=O)[C@H](C)NC)C(=O)N1CCC[C@H]1Cc1c(-c2nc3cc(F)ccc3n2C[C@@H]2CCCN2C(=O)[C@@H](NC(=O)[C@H](C)NC)C(C)(C)C)[nH]c2cc(F)ccc12 [Embodiment 8]
EC50 [3, 5]: < 10 nM

From patent US10508103B2, “Benzimidazole-linked indole compound acting as novel divalent IAP antagonist” (MEDSHINE DISCOVERY INC., priority 2016, dated 2019)
